These results are taken from paper PMC10263119, “WSD-0922, a novel brain-penetrant inhibitor of epidermal growth factor receptor, promotes survival in glioblastoma mouse models” (Neuro-Oncology Advances, 2023).

For orientation: IC50 means the concentration at which inhibition is half-maximal. A lower IC50 goes with higher potency. What is called inhibition is the change of the read-out against control, counted positive when it falls.

The structures appear in SMILES notation.

Type in all cases: biochemical
The target of one test is EGFR (Homo sapiens, UniProt P00533). The test can be described thus: cell-free in vitro kinase inhibition assay; kinetic data.
The target of the next test is T1, EPHA1 (Homo sapiens, UniProt P21709).
T1 sequence (P21709 26-976): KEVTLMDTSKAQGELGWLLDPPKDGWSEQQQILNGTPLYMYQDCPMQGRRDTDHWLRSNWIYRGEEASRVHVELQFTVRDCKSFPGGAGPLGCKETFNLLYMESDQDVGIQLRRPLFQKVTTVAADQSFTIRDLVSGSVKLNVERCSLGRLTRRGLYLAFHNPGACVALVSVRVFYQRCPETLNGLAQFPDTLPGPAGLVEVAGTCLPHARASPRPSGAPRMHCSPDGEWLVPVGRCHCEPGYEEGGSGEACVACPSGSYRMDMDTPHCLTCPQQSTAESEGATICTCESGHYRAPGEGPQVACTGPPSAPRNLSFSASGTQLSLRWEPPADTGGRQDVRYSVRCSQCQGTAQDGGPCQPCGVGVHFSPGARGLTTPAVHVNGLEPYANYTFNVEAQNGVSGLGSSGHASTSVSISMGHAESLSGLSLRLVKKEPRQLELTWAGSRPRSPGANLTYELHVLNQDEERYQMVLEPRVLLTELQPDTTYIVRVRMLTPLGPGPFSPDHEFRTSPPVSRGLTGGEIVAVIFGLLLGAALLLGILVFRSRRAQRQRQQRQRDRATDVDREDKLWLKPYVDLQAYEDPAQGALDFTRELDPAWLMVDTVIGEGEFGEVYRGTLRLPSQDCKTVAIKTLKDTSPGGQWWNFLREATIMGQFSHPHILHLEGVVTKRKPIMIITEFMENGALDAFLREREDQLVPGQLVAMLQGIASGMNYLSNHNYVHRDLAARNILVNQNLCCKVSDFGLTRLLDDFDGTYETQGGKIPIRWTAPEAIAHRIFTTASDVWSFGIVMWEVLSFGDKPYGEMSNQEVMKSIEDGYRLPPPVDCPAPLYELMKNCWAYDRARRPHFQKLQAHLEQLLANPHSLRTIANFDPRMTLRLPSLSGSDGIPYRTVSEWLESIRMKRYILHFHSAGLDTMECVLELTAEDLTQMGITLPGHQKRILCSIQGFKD
The test can be described thus: in vitro kinase inhibition, single concentration ([…]). The note with it: read-out: %Inhibition (1 μM WSD-0922).

The next test deals with HCK (Homo sapiens, UniProt P08631). The description is as above. The note with it: read-out: %Inhibition (1 μM WSD-0922).
A further test concerns the target T2, HER4 (Homo sapiens, UniProt Q15303).
T2 construct: gene ERBB4
Described as above. The note with it: read-out: %Inhibition (1 μM WSD-0922).

Another test has as its target SRC (Homo sapiens, UniProt P12931). The description is as above. The settings on record: read-out: %Inhibition (1 μM WSD-0922).
The target in another test is LCK (Homo sapiens, UniProt P06239). Described as above. The note with it: read-out: %Inhibition (1 μM WSD-0922).
The next test has as its target T3, LYNa (Homo sapiens, UniProt P07948).
T3 construct: gene LYN
Described as above. The settings on record: read-out: %Inhibition (1 μM WSD-0922).

Sequence of LCK (P06239 2-509): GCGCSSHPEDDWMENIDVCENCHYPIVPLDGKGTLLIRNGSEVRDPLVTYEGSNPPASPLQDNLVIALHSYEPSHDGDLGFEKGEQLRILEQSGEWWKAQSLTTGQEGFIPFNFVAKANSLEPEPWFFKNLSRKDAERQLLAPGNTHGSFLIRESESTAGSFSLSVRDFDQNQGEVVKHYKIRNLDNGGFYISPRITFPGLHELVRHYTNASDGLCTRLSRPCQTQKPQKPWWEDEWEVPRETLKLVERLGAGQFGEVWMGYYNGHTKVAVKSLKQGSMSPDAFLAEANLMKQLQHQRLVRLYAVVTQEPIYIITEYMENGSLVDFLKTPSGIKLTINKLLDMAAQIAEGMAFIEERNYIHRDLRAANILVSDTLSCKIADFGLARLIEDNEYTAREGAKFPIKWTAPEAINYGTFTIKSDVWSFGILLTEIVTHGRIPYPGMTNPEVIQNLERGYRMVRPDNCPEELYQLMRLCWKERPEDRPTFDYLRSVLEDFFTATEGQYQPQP
Sequence of HCK (P08631 2-526): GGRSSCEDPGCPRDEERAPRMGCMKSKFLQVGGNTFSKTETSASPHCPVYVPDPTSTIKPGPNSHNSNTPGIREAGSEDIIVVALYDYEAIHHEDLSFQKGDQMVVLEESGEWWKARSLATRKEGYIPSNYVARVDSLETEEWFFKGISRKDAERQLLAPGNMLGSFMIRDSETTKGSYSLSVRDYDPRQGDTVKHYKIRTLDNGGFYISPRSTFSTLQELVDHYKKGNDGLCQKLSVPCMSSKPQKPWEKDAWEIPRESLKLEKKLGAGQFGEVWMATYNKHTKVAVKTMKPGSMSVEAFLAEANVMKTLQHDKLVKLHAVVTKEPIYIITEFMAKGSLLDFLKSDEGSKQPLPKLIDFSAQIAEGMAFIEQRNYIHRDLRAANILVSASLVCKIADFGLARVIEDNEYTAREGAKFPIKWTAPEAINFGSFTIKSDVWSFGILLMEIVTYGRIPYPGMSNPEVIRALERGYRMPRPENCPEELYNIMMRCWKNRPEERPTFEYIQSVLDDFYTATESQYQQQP
Sequence of SRC (P12931 2-536): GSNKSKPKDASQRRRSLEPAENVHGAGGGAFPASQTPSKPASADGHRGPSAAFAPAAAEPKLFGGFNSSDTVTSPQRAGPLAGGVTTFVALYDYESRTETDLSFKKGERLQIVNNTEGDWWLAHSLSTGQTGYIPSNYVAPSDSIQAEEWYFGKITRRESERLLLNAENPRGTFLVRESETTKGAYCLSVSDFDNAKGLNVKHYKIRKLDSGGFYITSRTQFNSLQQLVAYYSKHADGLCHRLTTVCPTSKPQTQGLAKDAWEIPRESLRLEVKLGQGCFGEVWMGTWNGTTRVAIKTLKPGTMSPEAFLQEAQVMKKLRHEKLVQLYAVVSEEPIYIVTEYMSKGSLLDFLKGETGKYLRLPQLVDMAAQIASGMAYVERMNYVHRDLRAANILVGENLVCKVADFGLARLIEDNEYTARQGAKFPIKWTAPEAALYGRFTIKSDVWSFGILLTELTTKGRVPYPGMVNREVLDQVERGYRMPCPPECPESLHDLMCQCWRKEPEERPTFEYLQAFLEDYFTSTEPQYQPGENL
Sequence of EGFR (P00533 25-1210): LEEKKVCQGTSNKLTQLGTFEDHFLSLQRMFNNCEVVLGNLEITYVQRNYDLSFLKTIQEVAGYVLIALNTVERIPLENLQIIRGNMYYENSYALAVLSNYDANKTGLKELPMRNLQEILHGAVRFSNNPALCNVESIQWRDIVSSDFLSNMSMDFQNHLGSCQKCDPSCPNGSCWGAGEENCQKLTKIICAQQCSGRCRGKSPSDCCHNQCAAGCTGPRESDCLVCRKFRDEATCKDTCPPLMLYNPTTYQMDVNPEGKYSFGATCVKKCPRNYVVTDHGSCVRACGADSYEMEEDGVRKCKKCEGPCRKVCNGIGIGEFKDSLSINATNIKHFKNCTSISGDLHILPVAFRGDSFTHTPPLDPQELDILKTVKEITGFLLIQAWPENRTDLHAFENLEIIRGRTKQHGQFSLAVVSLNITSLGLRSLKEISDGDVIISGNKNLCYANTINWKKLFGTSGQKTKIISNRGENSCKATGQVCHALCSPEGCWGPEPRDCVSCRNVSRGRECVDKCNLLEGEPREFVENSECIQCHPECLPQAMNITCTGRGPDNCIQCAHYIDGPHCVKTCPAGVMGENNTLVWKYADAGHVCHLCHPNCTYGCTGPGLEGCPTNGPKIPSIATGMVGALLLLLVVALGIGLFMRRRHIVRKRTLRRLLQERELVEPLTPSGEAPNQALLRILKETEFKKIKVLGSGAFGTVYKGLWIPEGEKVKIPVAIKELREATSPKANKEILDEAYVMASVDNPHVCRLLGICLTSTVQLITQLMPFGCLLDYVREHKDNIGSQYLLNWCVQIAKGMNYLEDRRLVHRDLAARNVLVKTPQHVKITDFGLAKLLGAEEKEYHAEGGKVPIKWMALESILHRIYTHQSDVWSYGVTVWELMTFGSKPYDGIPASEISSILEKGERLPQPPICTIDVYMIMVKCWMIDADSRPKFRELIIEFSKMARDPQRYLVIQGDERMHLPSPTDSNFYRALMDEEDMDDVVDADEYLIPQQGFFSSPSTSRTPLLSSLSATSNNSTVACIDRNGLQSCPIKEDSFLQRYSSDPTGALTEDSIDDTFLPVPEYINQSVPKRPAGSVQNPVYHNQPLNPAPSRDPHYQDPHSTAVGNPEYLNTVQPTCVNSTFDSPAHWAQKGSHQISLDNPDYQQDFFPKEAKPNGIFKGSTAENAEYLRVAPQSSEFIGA
T2 sequence (Q15303 26-1308): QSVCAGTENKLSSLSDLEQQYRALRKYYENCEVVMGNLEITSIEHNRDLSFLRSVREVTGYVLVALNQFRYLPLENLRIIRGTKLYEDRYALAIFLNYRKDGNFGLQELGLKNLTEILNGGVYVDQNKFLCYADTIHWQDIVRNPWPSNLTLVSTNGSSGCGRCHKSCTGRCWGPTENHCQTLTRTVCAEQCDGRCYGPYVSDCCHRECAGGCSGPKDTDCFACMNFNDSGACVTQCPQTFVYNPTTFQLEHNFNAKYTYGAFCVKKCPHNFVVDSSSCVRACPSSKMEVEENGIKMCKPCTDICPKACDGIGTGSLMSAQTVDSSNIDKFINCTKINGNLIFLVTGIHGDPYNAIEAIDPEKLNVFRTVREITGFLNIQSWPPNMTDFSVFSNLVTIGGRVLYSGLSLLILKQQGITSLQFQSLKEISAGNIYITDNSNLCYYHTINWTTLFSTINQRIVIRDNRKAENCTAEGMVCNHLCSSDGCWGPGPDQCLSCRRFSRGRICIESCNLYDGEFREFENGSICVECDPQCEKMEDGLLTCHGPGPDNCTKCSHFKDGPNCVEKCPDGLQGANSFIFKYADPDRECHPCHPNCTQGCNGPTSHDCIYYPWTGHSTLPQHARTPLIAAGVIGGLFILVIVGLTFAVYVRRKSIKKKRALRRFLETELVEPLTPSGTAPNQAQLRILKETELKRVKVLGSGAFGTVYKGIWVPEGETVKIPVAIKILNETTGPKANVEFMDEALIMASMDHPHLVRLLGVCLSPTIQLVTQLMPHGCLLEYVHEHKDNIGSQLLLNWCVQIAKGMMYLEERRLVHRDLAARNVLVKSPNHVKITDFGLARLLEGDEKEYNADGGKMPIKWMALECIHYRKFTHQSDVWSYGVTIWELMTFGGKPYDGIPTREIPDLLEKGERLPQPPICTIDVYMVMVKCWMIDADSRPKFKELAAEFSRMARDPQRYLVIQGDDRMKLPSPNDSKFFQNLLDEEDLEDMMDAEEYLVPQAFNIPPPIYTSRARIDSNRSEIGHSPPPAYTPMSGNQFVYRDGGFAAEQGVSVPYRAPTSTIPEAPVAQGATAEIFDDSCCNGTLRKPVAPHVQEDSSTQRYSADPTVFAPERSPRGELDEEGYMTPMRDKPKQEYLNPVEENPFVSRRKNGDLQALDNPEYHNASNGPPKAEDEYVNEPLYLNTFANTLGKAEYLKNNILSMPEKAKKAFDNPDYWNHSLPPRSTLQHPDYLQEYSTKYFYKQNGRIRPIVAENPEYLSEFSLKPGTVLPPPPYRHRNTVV
T3 sequence (P07948 2-512): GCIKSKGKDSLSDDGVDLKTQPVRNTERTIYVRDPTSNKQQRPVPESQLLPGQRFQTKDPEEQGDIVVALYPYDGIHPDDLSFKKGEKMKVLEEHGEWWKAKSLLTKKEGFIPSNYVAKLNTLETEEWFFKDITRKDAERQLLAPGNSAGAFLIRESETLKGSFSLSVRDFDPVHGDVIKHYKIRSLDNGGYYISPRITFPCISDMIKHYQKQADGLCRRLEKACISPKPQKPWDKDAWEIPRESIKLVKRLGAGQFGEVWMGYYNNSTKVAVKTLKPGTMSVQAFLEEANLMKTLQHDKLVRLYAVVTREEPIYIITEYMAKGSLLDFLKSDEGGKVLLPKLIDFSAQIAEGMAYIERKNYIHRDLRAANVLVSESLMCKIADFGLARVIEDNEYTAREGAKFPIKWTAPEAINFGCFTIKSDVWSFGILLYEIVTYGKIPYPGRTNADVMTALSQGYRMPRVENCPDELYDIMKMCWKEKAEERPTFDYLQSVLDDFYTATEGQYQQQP

Compound `C#Cc1cccc(Nc2ncnc3cc(OC)c(O[C@@H]4CCN(C)CC4(F)F)cc23)c1F` [WSD-0922] displayed an IC50 on EGFR of 56 pM. In addition, the inhibition at 1 µM at EPHA1 was determined as 55.4%; on HCK it was 49.7%; on HER4 it was 69.8%; at SRC, 39.5%; on LCK, 46.2%; on LYNa it was 70.9%.
